The results in this text go back to ChEMBL document CHEMBL1157712, “Hit to lead account of the discovery of bisbenzamide and related ureidobenzamide inhibitors of Rho kinase” (J Med Chem, 2010).

≈ marks a conversion by molar mass, not a printed value.

Data set [1] is described as follows: Membrane permeability by PAMPA assay. The class given is ADME. The following applies: read-out: permeability.
The nature of data set [2]: (§1) Permeability from apical to basolateral side in human Caco-2 cells. It is filed as ADME, cell-based. The conditions noted are these: Caco-2, read-out: permeability.
Data set [3] deals with T1, Protein kinase C epsilon type (Homo sapiens, UniProt Q02156).
T1 sequence (Q02156 whole entry): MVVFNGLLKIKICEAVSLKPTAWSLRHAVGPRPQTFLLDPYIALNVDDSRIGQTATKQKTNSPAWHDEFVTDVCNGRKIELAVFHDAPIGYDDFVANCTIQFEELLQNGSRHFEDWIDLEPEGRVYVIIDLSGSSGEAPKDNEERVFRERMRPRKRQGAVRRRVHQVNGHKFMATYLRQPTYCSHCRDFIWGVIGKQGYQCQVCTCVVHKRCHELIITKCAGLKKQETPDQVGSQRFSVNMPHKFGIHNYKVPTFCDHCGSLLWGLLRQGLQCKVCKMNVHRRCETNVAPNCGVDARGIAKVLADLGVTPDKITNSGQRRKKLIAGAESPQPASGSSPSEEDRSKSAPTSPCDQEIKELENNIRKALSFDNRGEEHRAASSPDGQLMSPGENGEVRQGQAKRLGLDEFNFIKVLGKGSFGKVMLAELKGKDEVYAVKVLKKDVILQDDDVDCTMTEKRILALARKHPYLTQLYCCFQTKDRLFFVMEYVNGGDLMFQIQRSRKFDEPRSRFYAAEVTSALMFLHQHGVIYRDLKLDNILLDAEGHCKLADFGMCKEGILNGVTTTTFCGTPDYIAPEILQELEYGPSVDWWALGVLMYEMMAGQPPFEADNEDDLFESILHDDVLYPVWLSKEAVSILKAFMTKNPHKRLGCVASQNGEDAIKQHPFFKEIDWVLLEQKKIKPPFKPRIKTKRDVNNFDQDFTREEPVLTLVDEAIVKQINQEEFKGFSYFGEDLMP
The experiment in a line: Inhibition of PKCepsilon.

Data set [4] in a line: Solubility at pH 7.4. The class given is physicochemical. The conditions noted are these: buffer.
Data set [5] can be described thus: Permeability from basolateral to apical side in human Caco-2 cells. The following applies: read-out: permeability. It is filed as ADME, cell-based.
For data set [6], the target named is Serine/threonine-protein kinase N2 (Homo sapiens, UniProt Q16513).
The target of data set [7] is T2, Cytochrome P450 2D6 (Homo sapiens, UniProt P10635). The data set can be described thus: Inhibition of human CYP2D6 by LCMS/MS assay. It is filed as ADME.
T2 sequence (P10635 whole entry): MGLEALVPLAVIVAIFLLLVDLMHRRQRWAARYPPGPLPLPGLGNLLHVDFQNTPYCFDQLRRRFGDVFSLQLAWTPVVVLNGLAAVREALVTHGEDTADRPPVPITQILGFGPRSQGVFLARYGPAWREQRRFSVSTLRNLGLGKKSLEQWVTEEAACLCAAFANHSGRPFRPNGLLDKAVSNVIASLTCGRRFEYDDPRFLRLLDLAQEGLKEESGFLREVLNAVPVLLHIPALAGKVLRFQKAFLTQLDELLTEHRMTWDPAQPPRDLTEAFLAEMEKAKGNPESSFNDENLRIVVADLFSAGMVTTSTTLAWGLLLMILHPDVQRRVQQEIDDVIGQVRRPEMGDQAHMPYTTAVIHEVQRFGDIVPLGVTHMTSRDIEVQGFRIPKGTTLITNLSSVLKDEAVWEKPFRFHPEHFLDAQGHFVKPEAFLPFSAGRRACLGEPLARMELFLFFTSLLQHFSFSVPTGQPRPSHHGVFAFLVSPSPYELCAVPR
Data set [8] concerns the target T3, Cytochrome P450 2C9 (Homo sapiens, UniProt P11712). The data set can be described thus: Inhibition of human CYP2C9 by LCMS/MS assay. It is filed as ADME.
Data set [9] has as its target Serine/threonine-protein kinase MRCK beta (Homo sapiens) (UniProt Q9Y5S2). The data set can be described thus: Inhibition of CDC42BPB.
The species named for data set [10] is Rattus norvegicus. The experiment in a line: Induction of relaxation activity of phenylephrine-induced Sprague-Dawley rat aortic ring contraction. It is filed as functional. The conditions noted are these: Aorta.
Data set [11] has as its target T4, Cytochrome P450 3A4 (Homo sapiens, UniProt P08684). The experiment in a line: Inhibition of human CYP3A4 by LCMS/MS assay. It is filed as ADME.
Data set [12] concerns the target T5, Cytochrome P450 1A2 (Homo sapiens, UniProt P05177).
T5 sequence (P05177 whole entry): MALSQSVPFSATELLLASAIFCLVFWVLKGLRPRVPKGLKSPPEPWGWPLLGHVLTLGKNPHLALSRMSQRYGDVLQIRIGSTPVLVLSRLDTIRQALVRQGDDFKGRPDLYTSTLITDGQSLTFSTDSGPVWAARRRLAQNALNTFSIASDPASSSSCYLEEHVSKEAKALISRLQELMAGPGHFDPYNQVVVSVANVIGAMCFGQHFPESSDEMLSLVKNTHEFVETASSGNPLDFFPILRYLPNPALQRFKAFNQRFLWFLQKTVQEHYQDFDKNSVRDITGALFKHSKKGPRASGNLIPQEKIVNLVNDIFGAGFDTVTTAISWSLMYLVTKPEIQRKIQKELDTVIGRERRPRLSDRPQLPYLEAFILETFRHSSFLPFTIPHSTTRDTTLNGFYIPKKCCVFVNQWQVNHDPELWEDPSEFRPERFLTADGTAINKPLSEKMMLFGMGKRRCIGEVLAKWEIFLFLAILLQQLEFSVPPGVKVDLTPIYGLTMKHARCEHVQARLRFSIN
The experiment in a line: Inhibition of human CYP1A2 by LCMS/MS assay. It is filed as ADME.

In data set [13] the test system is ROCK1 (Homo sapiens). The experiment in a line: Inhibition of ROCK1.
Data set [14] deals with T6, Rho-associated protein kinase 2 (Homo sapiens, UniProt O75116).
T6 sequence (O75116 whole entry): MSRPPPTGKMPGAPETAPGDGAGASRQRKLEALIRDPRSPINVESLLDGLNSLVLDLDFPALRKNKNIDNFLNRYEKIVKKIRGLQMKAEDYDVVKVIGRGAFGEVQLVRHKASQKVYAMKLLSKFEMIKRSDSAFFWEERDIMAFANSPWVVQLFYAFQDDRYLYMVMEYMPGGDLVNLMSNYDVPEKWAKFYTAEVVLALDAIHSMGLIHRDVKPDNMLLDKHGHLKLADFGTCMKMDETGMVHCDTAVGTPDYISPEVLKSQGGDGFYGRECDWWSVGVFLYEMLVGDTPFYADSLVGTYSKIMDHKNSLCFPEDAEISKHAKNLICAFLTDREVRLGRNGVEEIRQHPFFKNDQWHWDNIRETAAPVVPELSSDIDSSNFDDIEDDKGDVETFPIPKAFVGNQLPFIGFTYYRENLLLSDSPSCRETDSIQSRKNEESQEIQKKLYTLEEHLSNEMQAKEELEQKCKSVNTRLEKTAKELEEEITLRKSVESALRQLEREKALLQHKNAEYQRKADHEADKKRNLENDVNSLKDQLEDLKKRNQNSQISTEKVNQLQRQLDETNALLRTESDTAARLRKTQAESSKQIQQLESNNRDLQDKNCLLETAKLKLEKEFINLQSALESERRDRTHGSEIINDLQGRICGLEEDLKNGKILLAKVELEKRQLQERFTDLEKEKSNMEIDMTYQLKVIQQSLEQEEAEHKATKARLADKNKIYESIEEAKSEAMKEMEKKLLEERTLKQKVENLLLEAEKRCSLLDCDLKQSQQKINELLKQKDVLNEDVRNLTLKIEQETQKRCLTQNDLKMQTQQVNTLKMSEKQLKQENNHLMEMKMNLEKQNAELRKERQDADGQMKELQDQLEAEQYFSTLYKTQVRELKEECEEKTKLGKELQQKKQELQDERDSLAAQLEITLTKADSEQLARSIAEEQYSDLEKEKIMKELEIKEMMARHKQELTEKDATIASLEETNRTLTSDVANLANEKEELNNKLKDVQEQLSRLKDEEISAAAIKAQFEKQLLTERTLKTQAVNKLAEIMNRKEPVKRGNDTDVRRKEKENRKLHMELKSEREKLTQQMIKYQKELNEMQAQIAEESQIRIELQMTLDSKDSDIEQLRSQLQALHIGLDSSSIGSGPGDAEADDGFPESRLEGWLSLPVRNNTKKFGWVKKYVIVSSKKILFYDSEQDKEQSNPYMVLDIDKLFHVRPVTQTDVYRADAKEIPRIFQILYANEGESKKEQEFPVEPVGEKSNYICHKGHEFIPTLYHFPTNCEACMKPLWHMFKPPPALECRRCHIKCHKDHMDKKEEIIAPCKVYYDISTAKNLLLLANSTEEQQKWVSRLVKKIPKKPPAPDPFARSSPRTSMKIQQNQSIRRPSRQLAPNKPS
Description: Inhibition of human ROCK2 by homogenous luciferase assay
Data set [15] concerns Caco-2. The data set is described as §1. It is filed as ADME, cell-based. The following applies: caco-2, BLD = below limit of detection.
Data set [16] addresses T3, Cytochrome P450 2C9. The data set can be described thus: Inhibition of human CYP2C9 by fluorescence assay. It is filed as ADME.
Data set [17] concerns the target T2, Cytochrome P450 2D6. The data set can be described thus: Inhibition of human CYP2D6 by fluorescence assay. The class given is ADME.
Data set [18] has as its target T6, Rho-associated protein kinase 2. The data set can be described thus: Inhibition of human ROCK2 by IMAP assay.
In data set [19] the target is T4, Cytochrome P450 3A4. The experiment in a line: Inhibition of human CYP3A4 using BQ substrate by fluorescence assay. It is filed as ADME.
Data set [20] addresses T5, Cytochrome P450 1A2. The experiment in a line: Inhibition of human CYP1A2 by fluorescence assay. The class given is ADME.
Data set [21] can be described thus: Metabolic stability in human liver microsomes assessed as half life. It is filed as ADME, Microsome.
Data set [22] addresses Cytochrome P450 2C19 (Homo sapiens, UniProt P33261). The experiment in a line: Inhibition of human CYP2C19 by fluorescence assay. The class given is ADME.
Data set [23] can be described thus: Bioavailability in rat. It is filed as ADME, organism-based. The conditions noted are these: in vivo.
In data set [24] the target is T4, Cytochrome P450 3A4. The experiment in a line: Inhibition of human CYP3A4 using BFC substrate by fluorescence assay. The class given is ADME.
The nature of data set [25]: Solubility at pH 4.5. It is filed as physicochemical. The conditions noted are these: buffer.
The nature of data set [26]: in vitro. The conditions noted are these: human, Caco-2.
Description: Ratio of permeability from basolateral to apical side over apical to basolateral side in human Caco-2 cells
Data set [27] has as its target Rho-associated protein kinase 1 (Homo sapiens, UniProt Q13464). The experiment in a line: Inhibition of human ROCK1 by homogenous luciferase assay.

T4 sequence (P08684 whole entry): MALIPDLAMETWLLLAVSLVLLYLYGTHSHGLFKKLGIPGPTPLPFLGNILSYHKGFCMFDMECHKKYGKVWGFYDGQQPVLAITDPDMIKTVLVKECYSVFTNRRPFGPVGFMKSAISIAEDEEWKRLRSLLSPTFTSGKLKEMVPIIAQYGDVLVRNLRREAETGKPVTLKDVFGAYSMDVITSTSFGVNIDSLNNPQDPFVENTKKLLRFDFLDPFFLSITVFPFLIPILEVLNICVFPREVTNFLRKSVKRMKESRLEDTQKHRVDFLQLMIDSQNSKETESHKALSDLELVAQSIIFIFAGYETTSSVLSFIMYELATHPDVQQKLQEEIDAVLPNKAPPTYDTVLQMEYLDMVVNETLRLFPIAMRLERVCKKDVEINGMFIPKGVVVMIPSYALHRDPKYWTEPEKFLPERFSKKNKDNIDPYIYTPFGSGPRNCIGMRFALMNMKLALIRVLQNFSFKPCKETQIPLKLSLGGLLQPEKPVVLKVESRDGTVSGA
T3 sequence (P11712 whole entry): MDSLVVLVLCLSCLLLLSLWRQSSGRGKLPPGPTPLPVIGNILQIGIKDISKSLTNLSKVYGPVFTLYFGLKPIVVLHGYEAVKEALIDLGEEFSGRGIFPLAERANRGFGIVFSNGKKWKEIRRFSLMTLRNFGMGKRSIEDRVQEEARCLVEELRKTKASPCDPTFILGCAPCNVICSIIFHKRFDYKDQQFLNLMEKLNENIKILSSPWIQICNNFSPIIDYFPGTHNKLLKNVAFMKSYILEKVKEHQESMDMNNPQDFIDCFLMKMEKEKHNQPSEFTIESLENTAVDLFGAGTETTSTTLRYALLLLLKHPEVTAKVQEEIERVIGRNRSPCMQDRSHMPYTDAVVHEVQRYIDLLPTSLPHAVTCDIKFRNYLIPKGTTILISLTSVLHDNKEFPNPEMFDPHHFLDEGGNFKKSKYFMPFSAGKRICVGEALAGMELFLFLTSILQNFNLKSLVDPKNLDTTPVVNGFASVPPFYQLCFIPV
Sequence of Serine/threonine-protein kinase MRCK beta (Homo sapiens) (Q9Y5S2 whole entry, looked up): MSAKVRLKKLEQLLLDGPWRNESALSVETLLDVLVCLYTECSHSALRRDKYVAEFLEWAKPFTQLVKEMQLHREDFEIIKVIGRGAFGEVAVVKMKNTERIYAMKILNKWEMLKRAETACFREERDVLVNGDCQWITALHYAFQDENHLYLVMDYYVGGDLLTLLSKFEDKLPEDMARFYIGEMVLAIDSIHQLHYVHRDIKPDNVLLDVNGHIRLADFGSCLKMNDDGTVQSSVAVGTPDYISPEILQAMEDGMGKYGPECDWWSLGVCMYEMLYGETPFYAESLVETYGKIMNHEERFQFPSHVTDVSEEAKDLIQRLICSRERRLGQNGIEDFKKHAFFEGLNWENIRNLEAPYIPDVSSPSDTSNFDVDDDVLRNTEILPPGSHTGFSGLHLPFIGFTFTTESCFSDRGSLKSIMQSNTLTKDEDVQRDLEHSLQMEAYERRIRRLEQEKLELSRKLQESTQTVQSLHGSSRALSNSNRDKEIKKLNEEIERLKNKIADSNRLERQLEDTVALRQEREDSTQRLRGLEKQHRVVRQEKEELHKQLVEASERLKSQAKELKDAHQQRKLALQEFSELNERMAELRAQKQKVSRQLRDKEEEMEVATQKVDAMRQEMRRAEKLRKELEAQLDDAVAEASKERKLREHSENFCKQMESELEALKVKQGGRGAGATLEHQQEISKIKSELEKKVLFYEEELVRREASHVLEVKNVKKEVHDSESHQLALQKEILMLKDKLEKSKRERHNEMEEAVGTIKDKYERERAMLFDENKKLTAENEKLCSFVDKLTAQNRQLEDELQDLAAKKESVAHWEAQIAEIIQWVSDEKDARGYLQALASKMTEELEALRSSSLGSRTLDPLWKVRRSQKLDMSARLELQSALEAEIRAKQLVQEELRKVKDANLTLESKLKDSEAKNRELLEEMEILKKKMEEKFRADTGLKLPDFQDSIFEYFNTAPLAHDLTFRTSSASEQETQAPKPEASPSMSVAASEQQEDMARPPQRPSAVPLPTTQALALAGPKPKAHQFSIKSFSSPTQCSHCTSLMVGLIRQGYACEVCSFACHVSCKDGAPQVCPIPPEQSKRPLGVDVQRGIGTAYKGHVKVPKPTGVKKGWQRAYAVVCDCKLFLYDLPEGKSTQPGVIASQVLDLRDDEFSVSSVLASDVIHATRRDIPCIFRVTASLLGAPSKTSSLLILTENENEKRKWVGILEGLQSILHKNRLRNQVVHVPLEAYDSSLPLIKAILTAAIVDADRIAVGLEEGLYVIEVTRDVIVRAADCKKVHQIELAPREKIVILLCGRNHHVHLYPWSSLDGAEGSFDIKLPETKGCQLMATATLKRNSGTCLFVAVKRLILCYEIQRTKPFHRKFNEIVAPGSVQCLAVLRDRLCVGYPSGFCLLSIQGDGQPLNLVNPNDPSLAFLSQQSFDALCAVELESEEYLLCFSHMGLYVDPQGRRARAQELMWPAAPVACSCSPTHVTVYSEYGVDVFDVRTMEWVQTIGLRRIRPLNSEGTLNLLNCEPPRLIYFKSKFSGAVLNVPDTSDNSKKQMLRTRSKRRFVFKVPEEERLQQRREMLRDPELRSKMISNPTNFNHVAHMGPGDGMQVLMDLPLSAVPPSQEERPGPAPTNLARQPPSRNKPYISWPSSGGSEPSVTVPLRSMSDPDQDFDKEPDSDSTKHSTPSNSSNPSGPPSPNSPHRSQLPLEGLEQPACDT
Sequence of Cytochrome P450 2C19 (P33261 whole entry): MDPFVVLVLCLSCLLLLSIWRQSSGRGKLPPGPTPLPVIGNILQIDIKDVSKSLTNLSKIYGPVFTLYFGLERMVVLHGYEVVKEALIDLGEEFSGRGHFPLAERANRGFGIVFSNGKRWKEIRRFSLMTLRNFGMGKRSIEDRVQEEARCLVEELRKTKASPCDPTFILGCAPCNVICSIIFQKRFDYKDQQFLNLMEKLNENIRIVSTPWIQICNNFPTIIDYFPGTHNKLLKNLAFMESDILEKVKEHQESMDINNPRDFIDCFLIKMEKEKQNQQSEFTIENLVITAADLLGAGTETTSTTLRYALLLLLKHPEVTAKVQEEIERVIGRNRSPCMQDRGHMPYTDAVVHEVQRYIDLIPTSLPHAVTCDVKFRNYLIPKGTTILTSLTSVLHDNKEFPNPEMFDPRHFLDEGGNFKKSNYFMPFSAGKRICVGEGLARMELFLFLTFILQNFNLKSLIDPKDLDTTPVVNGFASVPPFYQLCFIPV

Regarding `COc1ccc(C(=O)NCc2cccc(C(=O)Nc3ccc(CN(C)C)cc3)c2)cc1Cl`, the Papp in data set [1] worked out at 24 ×10⁻⁶ cm/s. The Papp A→B in data set [2] amounted to 7.7 ×10⁻⁶ cm/s. The IC50 in data set [3] was above 5 µM; in [6], above 5 µM; in [7], above 30 µM; in data set [8], above 30 µM; in data set [9], above 5 µM; in data set [10], 1.6 µM. Also, the IC50 in [11] and in data set [12] was above 30 µM in each case. For the same compound, in [4], the solubility was above 96 µg/mL. In addition, the Papp B→A in data set [5] was found to be 45.3 ×10⁻⁶ cm/s.
For the compound `COc1ccc(C(=O)NCc2cccc(NC(=O)CCC3CCCNC3)c2)cc1OC` (centres undefined), the IC50 in data set [3] was above 5 µM; in [6], above 5 µM; in data set [13], 0.19 µM; in data set [14], 0.073 µM; in [9], above 5 µM.
Consider `COc1ccc(C(=O)NCc2cccc(C(=O)Nc3ccc(CN(C)C)cc3)c2)cc1OC`, for which the Papp in [1] was 10 ×10⁻⁶ cm/s. Besides, in data set [15], the permeability entry was “BLD”. Besides, the IC50 is above 5 µM in data set [3]; above 30 µM in [16]; above 30 µM in [17]; above 5 µM in [6]; 0.069 µM in data set [14]; 0.23 µM in [18]. Also, the IC50 was above 5 µM in data set [9]; above 30 µM in data set [19]; 6 µM in [10]; above 30 µM in data set [20]; above 30 µM in [22]; 8.5 µM in data set [24]. Moreover, the solubility in data set [4] was above 100 µg/mL. For the same compound, the Papp B→A in [5] turned out to be 14.6 ×10⁻⁶ cm/s. The half-life in data set [21] amounted to 66 min. In [23], this compound had a bioavailability of 1.8%.
On to `COc1ccc(C(=O)NCc2cccc(C(=O)Nc3ccc(CO)cc3)c2)cc1OC`, for which, in [1], the Papp is 10 ×10⁻⁶ cm/s. Also, in data set [2], the Papp A→B came to 0.6 ×10⁻⁶ cm/s. In addition, the solubility in data set [4] came out at 48 µg/mL (≈ 114 µM). In data set [5], the Papp B→A came out at 16.1 ×10⁻⁶ cm/s. Further, the IC50 in data set [7] is above 30 µM; in data set [8], above 30 µM; in data set [14] it was 0.87 µM; in data set [11], above 30 µM; in data set [12], above 30 µM. For the same compound, the half-life in data set [21] is 41 min.
Consider `N#Cc1ccc(NC(=O)NCc2cccc(C(=O)NCCC3CCCNC3)c2)cc1` (centres undefined), for which the IC50 was above 5 µM in data set [3]; 1.7 µM in data set [6]; 0.031 µM in [13]; 0.018 µM in data set [14]; above 5 µM in data set [9].
With `COc1ccc(C(=O)NCc2cccc(C(=O)Nc3ccc(CN(C)C)cc3)c2)cc1C`, the Papp in data set [1] came out at 21 ×10⁻⁶ cm/s. The Papp A→B in data set [2] worked out at 7.9 ×10⁻⁶ cm/s. This compound yielded a solubility in data set [4] above 88 µg/mL. For the same compound, the Papp B→A in data set [5] amounted to 30.8 ×10⁻⁶ cm/s. Further, the IC50 was above 30 µM in data set [7]; 12.5 µM in data set [8]; 0.66 µM in data set [18]; 13.5 µM in [11]; above 30 µM in data set [12].
`COc1ccc(C(=O)NCc2cccc(C(=O)NCCc3ccncc3)c2)cc1OC`: the solubility in data set [25] was above 100 µg/mL; in data set [4] it was 63 µg/mL (≈ 150 µM). Besides, the Papp A→B in data set [2] amounted to 0.5 ×10⁻⁶ cm/s. Moreover, the IC50 in [16] was 16 µM; in [17], above 30 µM; in [14], 2.3 µM; in data set [19] it was 21 µM; in data set [10] it was 1.9 µM; in data set [20], above 30 µM. In addition, the IC50 in data set [22] is above 30 µM; in [27], 4.3 µM; in data set [24] it was 4 µM. The efflux ratio in data set [26] is 58. Also, the Papp B→A in data set [5] stood at 29.1 ×10⁻⁶ cm/s. Besides, the half-life in [21] came out at 10 min.
